The text below walks through data of patent publication US20250011296A1, “MODULATORS OF MOLECULAR TARGETS EXPRESSED IN METABOLIC AND INFLAMMATORY DISORDERS” (Ohio State Innovation Foundation, priority 2021, published 2025).

SMILES strings stand for the structures. “Also recorded” adds a separate entry of the source. Where two headings read alike, the source gives them in different places.

In one experiment the target is T1, PPAR-γ (Homo sapiens, UniProt P37231).
T1 construct: endogenous in cells; host or cells: CCD-112CoN normal colon cells or HeLa cells (ATCC), nuclear extract
T1 sequence (P37231 1-505): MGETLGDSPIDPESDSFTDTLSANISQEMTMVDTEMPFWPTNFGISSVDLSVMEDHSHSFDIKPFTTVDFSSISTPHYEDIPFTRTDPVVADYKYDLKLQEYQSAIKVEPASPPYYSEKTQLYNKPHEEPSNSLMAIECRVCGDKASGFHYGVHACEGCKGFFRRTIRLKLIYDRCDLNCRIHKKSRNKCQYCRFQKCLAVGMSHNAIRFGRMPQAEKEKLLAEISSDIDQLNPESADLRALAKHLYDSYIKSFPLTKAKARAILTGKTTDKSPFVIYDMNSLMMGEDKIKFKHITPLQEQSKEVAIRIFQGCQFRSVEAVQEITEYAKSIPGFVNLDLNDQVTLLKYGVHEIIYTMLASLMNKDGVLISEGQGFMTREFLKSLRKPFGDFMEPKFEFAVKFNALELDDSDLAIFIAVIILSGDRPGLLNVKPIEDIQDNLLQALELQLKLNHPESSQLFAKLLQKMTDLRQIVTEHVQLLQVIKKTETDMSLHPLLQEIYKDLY
Briefly: PPAR-γ ELISA assay (PPAR-α,γ,δ Complete Transcription Factor Assay Kit; CCD-112CoN or Hela cells, nuclear extracts). It counts as cell-based. As for the experimental part:
To evaluate the ability of natural product extracts and compounds to induce specific binding of PPAR-γ transcription factor in nuclear extracts to immunosorbed peroxisome proliferator response element, the PPAR-α,γ,δ Complete Transcription Factor Assay Kit (Cayman Chemical Company) was used according to the kit protocol. 303 CCD-112CoN normal colon cells or Hela cells (ATCC) were treated with mace extracts or isolated compounds for 24 h, nuclear extracts were harvested using the NE-PER kit (Pierce Biotechnology), and protein content equilibrated using the Pierce BCA Protein Assay kit (Pierce Biotechnology). Specific binding was detected through quantification of absorptivity at 630 nm in a BioTek uQuant microplate reader (BioTek Instruments, Inc.). […] Licarin A derivatives 45-48 were screened through the panel of in vitro assays to evaluate their potential as antidiabetic compound leads. […] Methods for the assay were as described above.
(In general: ELISA stands for enzyme-linked immunosorbent assay.)

For the next experiment, the system named is PPAR-γ expression. Briefly: Larval diabetic zebrafish assay, Western blot of PPAR-γ. It counts as in vivo. The note with it: diabetic zebrafish larvae, 10 μM. The procedure: Western blot analysis of zebrafish expression levels for glycated hemoglobin, metabolic enzymes, and molecular targets NFκB and PPAR-γ was performed to evaluate potential lead improvement and to discover possible mechanisms of action.
Wild-type zebrafish were sorted into 24-well microplates with 10 fish per well for a four-phase treatment cycle. At 72 hpf, type 2 diabetes was induced by administering 0.5 mg/mL alloxan in fish water for percutaneous absorption. […] At 78 hpf, the incubation solution was changed to 10 mg/ml D-glucose for 30 minutes, followed by a phase-four rinse in fresh system w Following the four-phase treatment cycle, zebrafish treatment groups were snap frozen in microcentrifuge tubes on dry ice, stored overnight at −80° C., thawed, and homogenized with 2 μL PBS per animal. Following centrifugation (60 minutes at 4° C. and 17,000 rpm), protein content of the homogenate supernatant was determined using the Pierce BCA Protein Assay kit (Pierce Biotechnology). Homogenates were analyzed by Western blot with equal amounts of total protein (20 μg) in each sample and using 4×LDS loading buffer (NuPAGE Life Technologies).
(§1) Electrophoresis was performed with NuPAGE MES SDS Running Buffer and using the XCell SureLock Mini-Cell Electrophoresis System (Life Technologies). Proteins separated on the gel were transferred to a PVDF membrane using TBST buffer. The blots were blocked in 3% BSA in TBST and subsequently probed overnight with primary antibodies (1:1000 in 1% BSA in TBST) against each target of interest. Following TBST rinses, secondary HRP-conjugated antibodies (1:2000) were applied to the membrane for 60 minutes. The HRP conjugated antibodies were detected using SuperSignal West Femto chemiluminescent substrate (Pierce Biotechnology) and immunoblot images were captured using the luminometer and Lumi Analyst 3.0 software.
(§2) Band densities were determined using ImageJ Gel Analysis to determine expression levels of each protein of interest. Expression levels of HbA1C, PPAR-γ, and NFκB were organized into a bar graphs (FIG. 5) with band densities calculated in comparison to the housekeeping gene β-actin, normalized to the untreated diabetic group (B) of zebrafish. […].
(In general: A western blot detects proteins with antibodies after separation by electrophoresis.)

In a further experiment the target is T2, NFκB (Homo sapiens, UniProt Q04206).
T2 construct: endogenous in cells; host or cells: HeLa cells (ATCC), nuclear extract
T2 sequence (Q04206 whole entry): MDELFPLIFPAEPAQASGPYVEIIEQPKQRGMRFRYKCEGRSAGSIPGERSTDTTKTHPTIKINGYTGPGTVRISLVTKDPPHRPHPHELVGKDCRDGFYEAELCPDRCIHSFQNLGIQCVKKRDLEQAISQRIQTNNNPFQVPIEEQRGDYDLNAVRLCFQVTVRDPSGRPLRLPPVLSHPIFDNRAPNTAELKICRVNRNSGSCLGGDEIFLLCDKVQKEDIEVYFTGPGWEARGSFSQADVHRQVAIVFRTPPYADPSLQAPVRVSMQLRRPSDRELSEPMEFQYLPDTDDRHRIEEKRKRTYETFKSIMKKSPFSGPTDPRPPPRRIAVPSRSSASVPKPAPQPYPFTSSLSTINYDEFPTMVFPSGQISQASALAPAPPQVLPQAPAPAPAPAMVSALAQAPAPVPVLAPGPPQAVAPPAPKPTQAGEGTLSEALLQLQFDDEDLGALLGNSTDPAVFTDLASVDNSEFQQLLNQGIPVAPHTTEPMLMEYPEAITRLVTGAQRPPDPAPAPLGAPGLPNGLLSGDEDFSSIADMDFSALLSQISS
Briefly: NFκB assay (EZ-Detect Transcription Factor Assay kit; TNF-α-treated HeLa cells, nuclear extracts). Type of experiment: cell-based. As for the experimental part:
To assess the ability of natural product extracts and compounds to inhibit the specific binding of activated NFκB transcription factor to the biotinylated consensus sequence, the EZ-Detect™ Transcription Factor Assay kit (Pierce Biotechnology) was used according to the kit manual and established protocol. HeLa cells (ATCC) were treated with each test sample and TNF-α, nuclear extracts harvested using the NE-PER kit (Pierce Biotechnology), and protein content equilibrated using the Pierce BCA Protein Assay kit (Pierce Biotechnology). Specific binding was detected through quantification of chemiluminescent signal in a plate reader (FLUOstar Optima, BMG Labtechnologies GmbH, Inc.).

For another experiment, the system named is PEPCK expression. Description: Larval diabetic zebrafish assay, Western blot of PEPCK. The settings on record: duplicate Western blot (FIG. 10), diabetic zebrafish larvae, 10 μM. It counts as in vivo. The procedure:
(§3) Following isolation, derivatization, and analysis of compounds 41-48 through the in vitro panel of assays, the mace natural products and licarin A derivatives were investigated in the larval diabetic zebrafish assay for potential antidiabetic activity. Western blot analysis of zebrafish expression levels for glycated hemoglobin, metabolic enzymes, and molecular targets NFκB and PPAR-γ was performed to evaluate potential lead improvement and to discover possible mechanisms of action.
(§4) Wild-type zebrafish were sorted into 24-well microplates with 10 fish per well for a four-phase treatment cycle. At 72 hpf, type 2 diabetes was induced by administering 0.5 mg/mL alloxan in fish water for percutaneous absorption. After three hours of alloxan treatment, phase two of the treatment cycle was initiated by administering 10 μM doses of natural product compounds 41-43 (FIG. 4) or derivatives 45-48 (FIG. 6) with 0.01% DMSO in system water. At 78 hpf, the incubation solution was changed to 10 mg/ml D-glucose for 30 minutes, followed by a phase-four rinse in fresh system w Following the four-phase treatment cycle, zebrafish treatment groups were snap frozen in microcentrifuge tubes on dry ice, stored overnight at −80° C., thawed, and homogenized with 2 μL PBS per animal. Following centrifugation (60 minutes at 4° C. and 17,000 rpm), protein content of the homogenate supernatant was determined using the Pierce BCA Protein Assay kit (Pierce Biotechnology). Homogenates were analyzed by Western blot with equal amounts of total protein (20 μg) in each sample and using 4×LDS loading buffer (NuPAGE Life Technologies). The immunoblot samples were heated at 95° C. for 5 minutes and loaded onto NuPAGE Bis-Tris 4-12% gradient SDS-PAGE gels.
as §1, §2

The test system of experiment [1] is HbA1C (glycated hemoglobin) expression. Briefly: Larval diabetic zebrafish assay, Western blot of HbA1C. Type of experiment: in vivo. The settings on record: duplicate Western blot (FIG. 7), diabetic zebrafish larvae, 10 μM. As for the experimental part:
as §3, §4, §1, §2

A further experiment has as its system NFκB p65 expression. Briefly: Larval diabetic zebrafish assay, Western blot of NFκB p65. It counts as in vivo. The settings on record: duplicate Western blot (FIG. 9), diabetic zebrafish larvae, 10 μM. The procedure:
as §3
Wild-type zebrafish were sorted into 24-well microplates with 10 fish per well for a four-phase treatment cycle. […] Following centrifugation (60 minutes at 4° C. and 17,000 rpm), protein content of the homogenate supernatant was determined using the Pierce BCA Protein Assay kit (Pierce Biotechnology). Homogenates were analyzed by Western blot with equal amounts of total protein (20 μg) in each sample and using 4×LDS loading buffer (NuPAGE Life Technologies). […]
Electrophoresis was performed with NuPAGE MES SDS Running Buffer and using the XCell SureLock Mini-Cell Electrophoresis System (Life Technologies). […] The HRP conjugated antibodies were detected using SuperSignal West Femto chemiluminescent substrate (Pierce Biotechnology) and immunoblot images were captured using the luminometer and Lumi Analyst 3.0 software. […]

For the next experiment, the system named is GLUT-4 expression. Description: Larval diabetic zebrafish assay, Western blot of GLUT-4. It counts as in vivo. The settings on record: duplicate Western blot (FIG. 11), diabetic zebrafish larvae, 10 μM. The procedure:
as §3
Wild-type zebrafish were sorted into 24-well microplates with 10 fish per well for a four-phase treatment cycle. At 72 hpf, type 2 diabetes was induced by administering 0.5 mg/mL alloxan in fish water for percutaneous absorption. After three hours of alloxan treatment, phase two of the treatment cycle was initiated by administering 10 μM doses of natural product compounds 41-43 (FIG. 4) or derivatives 45-48 (FIG. 6) with 0.01% DMSO in system water. […] Following centrifugation (60 minutes at 4° C. and 17,000 rpm), protein content of the homogenate supernatant was determined using the Pierce BCA Protein Assay kit (Pierce Biotechnology). Homogenates were analyzed by Western blot with equal amounts of total protein (20 μg) in each sample and using 4×LDS loading buffer (NuPAGE Life Technologies). […]
Electrophoresis was performed with NuPAGE MES SDS Running Buffer and using the XCell SureLock Mini-Cell Electrophoresis System (Life Technologies). […] The HRP conjugated antibodies were detected using SuperSignal West Femto chemiluminescent substrate (Pierce Biotechnology) and immunoblot images were captured using the luminometer and Lumi Analyst 3.0 software.
as §2

Setting [2] is: Table 13, tested at 50, 5, 0.5 and 0.05 μg/mL.
Setting [3] is: Table 20 summary, read-out: NFκBIC50.
[4] abbreviates: Table 19, licarin A derivatives at 50 μg/mL in Hela cells.

`C=CCc1cc(OC)c(O[C@H](C)[C@@H](O)c2ccc3c(c2)OCO3)c(OC)c1` [Compound 43, erythro-8,4′-oxyneolign-8′-ene]: the PPAR-γ % activation at PPAR-γ (Table 14, isolates at 50 μg/mL) is given as less than 50%; on PPAR-γ (Table 20 summary, 50 μg/mL), less than 50%. Further, the “PPAR-γ expression (band density)” value in the experiment with PPAR-γ expression (preliminary Western blot (FIG. 4/5)) was “greater PPAR-γ expression that 41”. Moreover, the IC50 at NFκB (setting [2]), on NFκB (setting [3]) and against NFκB (in vitro NFκB assay) was 64.4 nM throughout.
Consider `C/C=C/c1ccc(O[C@H](C)[C@@H](OC(C)=O)c2ccc3c(c2)OCO3)c(OC)c1` [Compound 44, maceneolignan J], for which the IC50 at NFκB (setting [2]), on NFκB (setting [3]) and on NFκB (in vitro NFκB assay) was 0.1 nM in each case.
As to `C/C=C/c1cc(OC)c2c(c1)[C@H](C)[C@@H](c1ccc(OC(C)C)c(OC)c1)O2` [Compound 45, isopropoxy-licarin A], the PPAR-γ % activation on PPAR-γ (setting [4]) was 57%; on PPAR-γ (Table 20 summary, 50 μg/mL) it was 57%. Also, the “PEPCK expression (band density)” value with PEPCK expression was “indicated a return to normoglycemia”. Further, the “HbA1C expression (band density)” value in experiment [1] is “did not reduce HbA1C expression”.
Take `COc1cc([C@H]2Oc3c(OC)cc(C=O)cc3[C@@H]2C)ccc1OC(C)C` [Compound 46, isopropoxy-licarin A carbaldehyde]: the PPAR-γ % activation at PPAR-γ (setting [4]) was found to be 29%; on PPAR-γ (Table 20 summary, 50 μg/mL), 29%. On PPAR-γ (preliminary screening, 50 μg/mL), the “PPAR-γ activity in vitro” value is reported as “no significant PPAR-γ activity in vitro”. Further, the “NFκB p65 expression (band density)” value in the experiment with NFκB p65 expression is listed as “lower levels of NFκB”. Also, in the experiment with PEPCK expression, the “PEPCK expression (band density)” value is “indicated a return to normoglycemia”. The “HbA1C expression (band density)” value in experiment [1] was “most effective test samples for decreasing HbA1C; also recorded: significant reduction of HbA1C expression”.
`C/C=C/c1cc(OC)c2c(c1)[C@H](C)[C@@H](c1ccc(OC(=O)OCC)c(OC)c1)O2` [Compound 47, licarin A ethyl carbonate]: the PPAR-γ % activation at PPAR-γ (setting [4]) is listed as 0%; on PPAR-γ (Table 20 summary, 50 μg/mL), 0%. Further, the “PEPCK expression (band density)” value in the experiment with PEPCK expression is recorded as “retained low PEPCK expression”. Also, in the experiment with PPAR-γ expression (duplicate Western blot (FIG. 8)), the “PPAR-γ expression (band density)” value is recorded as “performed surprisingly well”. The “HbA1C expression (band density)” value in experiment [1] was “did not reduce HbA1C expression”. The “GLUT-4 expression (band density)” value in the experiment with GLUT-4 expression was “significantly increased capacities for glucose uptake”. Moreover, the “NFκB inhibitory activity in vitro” value at NFκB (HeLa cells) is given as “only weak NFκB inhibitory activity”.
In the case of `CCOC(=O)Oc1ccc([C@H]2Oc3c(OC)cc(C=O)cc3[C@@H]2C)cc1OC` [Compound 48, licarin A formyl ethyl carbonate], the PPAR-γ % activation stood at 0% at PPAR-γ (setting [4]) and 0% at PPAR-γ (Table 20 summary, 50 μg/mL). The “NFκB p65 expression (band density)” value in the experiment on NFκB p65 expression was “lower levels of NFκB”. Also, in the experiment with PEPCK expression, the “PEPCK expression (band density)” value is listed as “retained low PEPCK expression”. Moreover, in experiment [1], the “HbA1C expression (band density)” value is reported as “did not reduce HbA1C expression”. For the same molecule, the “GLUT-4 expression (band density)” value with GLUT-4 expression is recorded as “significantly increased capacities for glucose uptake”.
